Results published in PubChem BioAssay (NCI).
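Method: 48-hour compound exposure of cells in 96-well plates, five concentrations, linear interpolation of endpoints. The concentration for 50% growth inhibition is given as GI50. TGI is the concentration that stops growth completely.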

Experiments:
Test in all cases: NCI tumour cell line growth inhibition, 48 h
[1] = tested on: 786-0 renal
[2] = tested on: A498 renal
[3] = tested on: A549 NSCLC
[4] = tested on: ACHN renal
[5] = tested on: BT-549 breast
[6] = tested on: CAKI-1 renal
[7] = tested on: CCRF-CEM leukemia
[8] = tested on: COLO 205 colon
[9] = tested on: DU-145 prostate
[10] = tested on: EKVX NSCLC
[11] = tested on: HCC-2998 colon
[12] = tested on: HCT-15 colon
[13] = tested on: HOP-62 NSCLC
[14] = tested on: HOP-92 NSCLC
[15] = tested on: HT29 colon
[16] = tested on: IGROV1 ovarian
[17] = tested on: K-562 leukemia
[18] = tested on: KM12 colon
[19] = tested on: LOX IMVI melanoma
[20] = tested on: M14 melanoma
[21] = tested on: MALME-3M melanoma
[22] = tested on: MCF7 breast
[23] = tested on: MDA-MB-231 breast
[24] = tested on: MDA-MB-435
[25] = tested on: NCI-H226 lung
[26] = tested on: NCI-H23 lung
[27] = tested on: NCI-H460 lung
[28] = tested on: NCI-H522 lung
[29] = tested on: NCI/ADR-RES ovarian
[30] = tested on: OVCAR-3 ovarian
[31] = tested on: OVCAR-4 ovarian
[32] = tested on: OVCAR-5 ovarian
[33] = tested on: OVCAR-8 ovarian
[34] = tested on: PC-3 prostate
[35] = tested on: RPMI-8226 leukemia
[36] = tested on: RXF 393 renal
[37] = tested on: SF-268 CNS
[38] = tested on: SF-295 CNS
[39] = tested on: SF-539 CNS
[40] = tested on: SK-MEL-2 melanoma
[41] = tested on: SK-MEL-28 melanoma
[42] = tested on: SK-MEL-5 melanoma
[43] = tested on: SK-OV-3 ovarian
[44] = tested on: SN12C renal
[45] = tested on: SNB-19 CNS
[46] = tested on: SNB-75 CNS
[47] = tested on: SR leukemia
[48] = tested on: T-47D breast
[49] = tested on: TK-10 renal
[50] = tested on: UACC-257 melanoma
[51] = tested on: UACC-62 melanoma
[52] = tested on: UO-31 renal
[53] = tested on: HL-60(TB) leukemia
[54] = tested on: HS 578T breast
[55] = tested on: MOLT-4 leukemia
[56] = tested on: SW-620 colon
[57] = tested on: U251 CNS

CCN(CC)CCN1C(=O)c2c(c(C)c3c(oc4cc(O)ccc43)c2C)C1=O
GI50 [1]: 1620 nM
TGI [1]: 3200 nM
GI50 [2]: 1690 nM
TGI [2]: 3120 nM
GI50 [3]: 2050 nM
TGI [3]: 4680 nM
GI50 [4]: 1560 nM
TGI [4]: 2890 nM
GI50 [5]: 1670 nM
TGI [5]: 3190 nM
GI50 [6]: 1660 nM
TGI [6]: 3060 nM
GI50 [7]: 2230 nM
TGI [7]: 6250 nM
GI50 [8]: 2180 nM
TGI [8]: 5770 nM
GI50 [9]: 1720 nM
TGI [9]: 3410 nM
GI50 [10]: 1690 nM
TGI [10]: 3300 nM
GI50 [11]: 1620 nM
TGI [11]: 3030 nM
GI50 [12]: 1690 nM
TGI [12]: 3320 nM
GI50 [13]: 2060 nM
TGI [13]: 4840 nM
GI50 [14]: 1540 nM
TGI [14]: 3140 nM
GI50 [15]: 2140 nM
TGI [15]: 5410 nM
GI50 [16]: 1600 nM
TGI [16]: 3170 nM
GI50 [17]: 2300 nM
TGI [17]: > 100000 nM
GI50 [18]: 1820 nM
TGI [18]: 3740 nM
GI50 [19]: 1700 nM
TGI [19]: 3180 nM
GI50 [20]: 1810 nM
TGI [20]: 3630 nM
GI50 [21]: 1560 nM
TGI [21]: 2970 nM
GI50 [22]: 1650 nM
TGI [22]: 3320 nM
GI50 [23]: 1740 nM
TGI [23]: 3360 nM
GI50 [24]: 1570 nM
TGI [24]: 3080 nM
GI50 [25]: 2060 nM
TGI [25]: 4380 nM
GI50 [26]: 1700 nM
TGI [26]: 3200 nM
GI50 [27]: 1750 nM
TGI [27]: 3370 nM
GI50 [28]: 2110 nM
TGI [28]: 4710 nM
GI50 [29]: 1660 nM
TGI [29]: 3260 nM
GI50 [30]: 1780 nM
TGI [30]: 3340 nM
GI50 [31]: 1690 nM
TGI [31]: 3370 nM
GI50 [32]: 1660 nM
TGI [32]: 3040 nM
GI50 [33]: 2110 nM
TGI [33]: 5720 nM
GI50 [34]: 1500 nM
TGI [34]: 3220 nM
GI50 [35]: 1770 nM
TGI [35]: 4760 nM
GI50 [36]: 1330 nM
TGI [36]: 2690 nM
GI50 [37]: 1740 nM
TGI [37]: 3780 nM
GI50 [38]: 1560 nM
TGI [38]: 2980 nM
GI50 [39]: 1680 nM
TGI [39]: 3050 nM
GI50 [40]: 2350 nM
TGI [40]: 5270 nM
GI50 [41]: 1580 nM
TGI [41]: 3030 nM
GI50 [42]: 1560 nM
TGI [42]: 2920 nM
GI50 [43]: 1830 nM
TGI [43]: 3360 nM
GI50 [44]: 1630 nM
TGI [44]: 3110 nM
GI50 [45]: 1680 nM
TGI [45]: 3210 nM
GI50 [46]: 1440 nM
TGI [46]: 2800 nM
GI50 [47]: 1890 nM
TGI [47]: > 100000 nM
GI50 [48]: 2280 nM
TGI [48]: 6440 nM
GI50 [49]: 1930 nM
TGI [49]: 3620 nM
GI50 [50]: 1950 nM
TGI [50]: 4150 nM
GI50 [51]: 1580 nM
TGI [51]: 2960 nM
GI50 [52]: 1480 nM
TGI [52]: 2810 nM

N#Cc1c(NC(=O)c2ccccc2)sc2c1CCC(=O)C2
GI50 [2]: 8830 nM
TGI [2]: 41200 nM
GI50 [3]: 6700 nM
TGI [3]: > 100000 nM
GI50 [4]: 906 nM
TGI [4]: 2300 nM
GI50 [6]: 380 nM
TGI [6]: 1860 nM
GI50 [7]: 430 nM
TGI [7]: > 100000 nM
GI50 [8]: 1930 nM
TGI [8]: 4460 nM
GI50 [9]: 2980 nM
TGI [9]: > 100000 nM
GI50 [10]: 2330 nM
TGI [10]: 10400 nM
GI50 [11]: 1820 nM
TGI [11]: 10300 nM
GI50 [12]: 395 nM
TGI [12]: 2390 nM
GI50 [53]: 309 nM
TGI [53]: 2960 nM
GI50 [13]: 2550 nM
TGI [13]: > 100000 nM
GI50 [14]: 821 nM
TGI [14]: 2720 nM
GI50 [54]: 1920 nM
TGI [54]: 7320 nM
GI50 [15]: 747 nM
TGI [15]: > 100000 nM
GI50 [16]: 1590 nM
TGI [16]: 11000 nM
GI50 [17]: 467 nM
TGI [17]: > 100000 nM
GI50 [18]: 711 nM
TGI [18]: 5220 nM
GI50 [19]: 821 nM
TGI [19]: 5970 nM
GI50 [21]: 1650 nM
TGI [21]: 3920 nM
GI50 [22]: 640 nM
TGI [22]: 7830 nM
GI50 [23]: 1990 nM
TGI [23]: 6280 nM
GI50 [24]: 594 nM
TGI [24]: 3600 nM
GI50 [55]: 1200 nM
TGI [55]: > 100000 nM
GI50 [25]: 2750 nM
TGI [25]: 12100 nM
GI50 [26]: 768 nM
TGI [26]: 6990 nM
GI50 [27]: 2220 nM
TGI [27]: > 100000 nM
GI50 [28]: 358 nM
TGI [28]: 4660 nM
GI50 [29]: 1330 nM
TGI [29]: 11800 nM
GI50 [30]: 1040 nM
TGI [30]: 2430 nM
GI50 [31]: 806 nM
TGI [31]: 2490 nM
GI50 [32]: 1250 nM
TGI [32]: 4770 nM
GI50 [33]: 1270 nM
TGI [33]: 45000 nM
GI50 [34]: 385 nM
TGI [34]: 13300 nM
GI50 [35]: 305 nM
TGI [35]: 1320 nM
GI50 [36]: 1170 nM
TGI [36]: 3650 nM
GI50 [37]: 2590 nM
TGI [37]: 38400 nM
GI50 [38]: 1960 nM
TGI [38]: 6830 nM
GI50 [39]: 780 nM
TGI [39]: 2590 nM
GI50 [40]: 2450 nM
TGI [40]: 8650 nM
GI50 [42]: 1650 nM
TGI [42]: 3220 nM
GI50 [43]: 2330 nM
TGI [43]: 14700 nM
GI50 [44]: 1160 nM
TGI [44]: 7510 nM
GI50 [45]: 3480 nM
TGI [45]: > 100000 nM
GI50 [46]: 1640 nM
TGI [46]: 6200 nM
GI50 [56]: 524 nM
TGI [56]: 3690 nM
GI50 [49]: 1980 nM
TGI [49]: 28700 nM
GI50 [57]: 1520 nM
TGI [57]: 16900 nM
GI50 [50]: 1590 nM
TGI [50]: 5490 nM
GI50 [51]: 404 nM
TGI [51]: 1930 nM
GI50 [52]: 1050 nM
TGI [52]: 2240 nM
